Results published in paper PMC6588243, “Fate of ptaquiloside—A bracken fern toxin—In cattle” (PLoS ONE, 2019).
Where two headings read alike, the source gives them in different places.

What was measured:
Format in all cases: in vivo, Jersey heifers
[1] = Toxicokinetics of PTA and PTB in plasma after intravenous administration of PTA; settings: for AUC0-∞: PTA in plasma; for k el / clearance / MRT / Vd: iv; for k el: read-out: λz terminal slope (converted)
Description: Two heifers (no’s 4848 and 4849) were used in a series of five experiments (Table 1) in a cross-over design including intravenous administration of pure PTA, oral administration of bracken extract and oral administration of dried bracken fern. At least 2 weeks elapsed between each experiment.
Intravenous administration of PTA. In Experiment 1 the dose of purified PTA (0.21 mg kg^-1 body weight (b.w.) / 0.527 μmoles kg^-1) was dissolved in 10 mL of sterile water in a brown glass vial 1 hour before administration and protected from light. The solution was injected through a catheter (Cavafix Certo: 45 cm, 16 G; B. Braun Melsungen AG, Melsungen, Germany) placed in the right jugular vein. Blood samples were collected through another catheter placed in the left jugular vein. Blood samples were collected in heparinized glass tubes before and at predetermined times (10, 20, 30, 45 min and 1, 2, 4, 6, 8, 12, 21 and 24 hours) after PTA administration. The blood was centrifuged for 15 min at 3000 g to separate plasma which then was stored immediately at -18°C until assayed within a week following the method of Aranha et al.. Urine was collected quantitatively in urinary bags (Ratiomed GmBH, München, Germany) through a Foley catheter (Rusch Silasil no 16; Teleflex, Milan, Italy) inserted into the bladder. Samples were collected before and at predetermined times (1, 2, 4, 6, 8, 12, 20 and 24 hours) after PTA administration. Two replicates from each sample were diluted 10 times (0.5 mL: 4.5 mL) with 0.1 M acetic acid, buffered to pH 5 with ammonium acetate and frozen immediately at -18°C until assayed within a week following the method of Aranha et al.. […] In this experiment, PTA was dissolved in sterile water immediately before injection.
(§1) Concentrations of PTA in plasma of individual animals were evaluated by non-compartmental analysis. Toxicokinetic variables were calculated using standard kinetic equations. The area under the curve (AUC) and the area under the first moment curve (AUMC) were determined using combined linear and natural logarithm trapezoidal rules. The terminal elimination rate was determined using the last three data points of the curve.
(§2) PTA and PTB were analysed by LC-MS after purification using solid phase extraction (SPE) columns as reported in Aranha et al.. The limit of quantification of PTA and PTB in plasma was 3.0 x 10^−3 μM and 9.30 x 10^−3 μM, respectively. Limit of quantifications in diluted urine was 13 x 10^−3 μM for PTA and 8.28 x 10^−3μM for PTB.

[2] = Urinary recovery of PTA and PTB after intravenous administration of PTA; settings: twelve hours after iv administration of PTA
Description: Intravenous administration of PTA. In Experiment 1 the dose of purified PTA (0.21 mg kg^-1 body weight (b.w.) / 0.527 μmoles kg^-1) was dissolved in 10 mL of sterile water in a brown glass vial 1 hour before administration and protected from light. The solution was injected through a catheter (Cavafix Certo: 45 cm, 16 G; B. Braun Melsungen AG, Melsungen, Germany) placed in the right jugular vein. Blood samples were collected through another catheter placed in the left jugular vein. Blood samples were collected in heparinized glass tubes before and at predetermined times (10, 20, 30, 45 min and 1, 2, 4, 6, 8, 12, 21 and 24 hours) after PTA administration. The blood was centrifuged for 15 min at 3000 g to separate plasma which then was stored immediately at -18°C until assayed within a week following the method of Aranha et al.. Urine was collected quantitatively in urinary bags (Ratiomed GmBH, München, Germany) through a Foley catheter (Rusch Silasil no 16; Teleflex, Milan, Italy) inserted into the bladder. […]
as §2

[3] = One-week repeated dose trial with dried bracken, plasma toxicokinetics; settings: dried bracken, 7 days
Description: The two heifers used for the single dose trials were also used for the one week repeated dose study together with an additional two Jersey heifers (no’s 1550 and 1567; Harald Hansen Eftf. I/S, Slangerup, Denmark) weighing 163 to 237 kg. The additional two heifers had never been exposed to PTA or to bracken fern. A wash-out period of 20 days between the last single-dose experiment and the one week repeated dose trial was established for heifers no’s 4848 and 4849.
All four heifers were fed dried bracken powder (top-dressed and molasses added). twice a day during a period of 7 days providing a daily PTA dose of 2 mg kg^-1 (5 μmoles kg^-1). On Day 8, the heifers no 4848 and no 1567 were additionally fed in the morning and euthanized 1 hour after using a captive bolt pistol and exsanguination. The two other heifers (no 4849 and no 1550) were euthanized 15 h after the last dose on Day 7 (Fig 2).
Blank blood samples were collected before the first dose was given. On Day 1 and Day 7 blood samples were collected after the morning dose at predetermined time points between 1 and 6 h after dosing (1, 2, 3, 5 and 6 hours). On Day 2 to Day 6 blood samples were collected daily 1 hour after 50% or more of the morning feed had been ingested, since the bracken fern was not eaten instantly. On Day 8 blood samples were collected just before euthanasia. Blood samples were processed and stored as described above.
as §1

For `CC1=C[C@]2(O[C@@H]3O[C@H](CO)[C@@H](O)[C@H](O)[C@H]3O)C[C@@H](C)C(=O)[C@@H]2[C@](C)(O)C12CC2` [PTA, (2'R,3a'R,4'S,7a'R)-4'-Hydroxy-2',4',6'-trimethyl-3'-oxo-2',3',3a',4'-tetrahydrospiro[cyclopropane-1,5'-inden]-7a'(1'H)-yl β-D-glucopyranoside], the “AUC0-∞” value ([1]; iv PTA 0.141 μmoles kg^-1, heifer no 4849, head prints Experiment 2) was 0.42 µM·h, the “AUC0-∞” value ([1]; iv PTA 0.231 μmoles kg^-1, heifer no 4848, head prints Experiment 2) was 0.829 µM·h and the “AUC0-∞” value ([1]; iv PTA 0.527 μmoles kg^-1, heifer no 4848, Experiment 1) was 1.39 µM·h. For the same compound, the “AUC0-∞” value ([1]; iv PTA 0.527 μmoles kg^-1, heifer no 4849, Experiment 1) was 1.35 µM·h, the k el ([1]; female, Jersey, bovine, plasma, 0.141 μmoles kg^-1, iv PTA 0.141 μmoles kg^-1, heifer no 4849, head prints Experiment 2, plasma) was 6.72e-05 s⁻¹ and the clearance ([1]; female, Jersey, bovine, plasma, 0.141 μmoles kg^-1, iv PTA 0.141 μmoles kg^-1, heifer no 4849, head prints Experiment 2, read-out: Cl (body) body clearance (converted)) was 5.57 mL/min/kg. For the same compound, the MRT ([1]; female, Jersey, bovine, plasma, 0.141 μmoles kg^-1, iv PTA 0.141 μmoles kg^-1, heifer no 4849, head prints Experiment 2, read-out: MRT mean residence time) was 2.48 h, the Vd ([1]; female, Jersey, bovine, plasma, 0.141 μmoles kg^-1, iv PTA 0.141 μmoles kg^-1, heifer no 4849, head prints Experiment 2, read-out: Vss apparent volume of distribution at steady-state) was 0.83 L/kg and the k el ([1]; female, Jersey, bovine, plasma, 0.231 μmoles kg^-1, iv PTA 0.231 μmoles kg^-1, heifer no 4848, head prints Experiment 2, plasma) was 0.000105 s⁻¹. For the same compound, the clearance ([1]; female, Jersey, bovine, plasma, 0.231 μmoles kg^-1, iv PTA 0.231 μmoles kg^-1, heifer no 4848, head prints Experiment 2, read-out: Cl (body) body clearance (converted)) was 4.72 mL/min/kg, the MRT ([1]; female, Jersey, bovine, plasma, 0.231 μmoles kg^-1, iv PTA 0.231 μmoles kg^-1, heifer no 4848, head prints Experiment 2, read-out: MRT mean residence time) was 2.04 h and the Vd ([1]; female, Jersey, bovine, plasma, 0.231 μmoles kg^-1, iv PTA 0.231 μmoles kg^-1, heifer no 4848, head prints Experiment 2, read-out: Vss apparent volume of distribution at steady-state) was 0.567 L/kg. The k el ([1]; female, Jersey, bovine, plasma, 0.527 μmoles kg^-1, iv PTA 0.527 μmoles kg^-1, heifer no 4848, Experiment 1, plasma) was 4.25e-05 s⁻¹, the clearance ([1]; female, Jersey, bovine, plasma, 0.527 μmoles kg^-1, iv PTA 0.527 μmoles kg^-1, heifer no 4848, Experiment 1, read-out: Cl (body) body clearance (converted)) was 6.33 mL/min/kg and the MRT ([1]; female, Jersey, bovine, plasma, 0.527 μmoles kg^-1, iv PTA 0.527 μmoles kg^-1, heifer no 4848, Experiment 1, read-out: MRT mean residence time) was 2.99 h. The Vd ([1]; female, Jersey, bovine, plasma, 0.527 μmoles kg^-1, iv PTA 0.527 μmoles kg^-1, heifer no 4848, Experiment 1, read-out: Vss apparent volume of distribution at steady-state) was 1.14 L/kg, the k el ([1]; female, Jersey, bovine, plasma, 0.527 μmoles kg^-1, iv PTA 0.527 μmoles kg^-1, heifer no 4849, Experiment 1, plasma) was 3.19e-05 s⁻¹ and the clearance ([1]; female, Jersey, bovine, plasma, 0.527 μmoles kg^-1, iv PTA 0.527 μmoles kg^-1, heifer no 4849, Experiment 1, read-out: Cl (body) body clearance (converted)) was 6.48 mL/min/kg. It also gave an MRT ([1]; female, Jersey, bovine, plasma, 0.527 μmoles kg^-1, iv PTA 0.527 μmoles kg^-1, heifer no 4849, Experiment 1, read-out: MRT mean residence time) of 3.84 h, a Vd ([1]; female, Jersey, bovine, plasma, 0.527 μmoles kg^-1, iv PTA 0.527 μmoles kg^-1, heifer no 4849, Experiment 1, read-out: Vss apparent volume of distribution at steady-state) of 1.49 L/kg and a Vd ([1]; female, Jersey, bovine, plasma, 0.21 mg/kg, iv PTA 0.21 mg kg^-1 b.w., average of two heifers, read-out: apparent volume of distribution at steady state (Vss)) of ~1.3 L/kg. The MRT ([1]; female, Jersey, bovine, plasma, iv PTA, abstract and discussion, read-out: mean residence time (MRT), as summarised) was ≤ 4 h, the half-life ([1]; female, Jersey, bovine, plasma, iv purified PTA, read-out: terminal half-life) was ≤ 6 h and the Vd ([1]; female, Jersey, cattle, plasma, 0.21 mg/kg, iv PTA 0.21 mg kg^-1 b.w., average of two heifers, read-out: apparent volume of distribution at steady state (Vss)) was 1.3 L/kg. The clearance ([1]; female, Jersey, cattle, plasma, 0.21 mg/kg, iv PTA 0.21 mg kg^-1 b.w., average of two heifers, read-out: average clearance (converted)) was 6.5 mL/min/kg, the MRT ([1]; female, Jersey, cattle, plasma, 0.21 mg/kg, iv PTA 0.21 mg kg^-1 b.w., average of two heifers, read-out: average of the mean residence time (MRT)) was 3.4 h and the MRT ([1]; female, Jersey, cattle, plasma, iv PTA, abstract and discussion, read-out: mean residence time (MRT), as summarised) was 4 h. For the same compound, the “time after which the plasma concentration was below the limit of quantification” value ([1]; iv PTA 0.21 mg kg^-1 b.w.) was 12 h, the “dose recovered in urine as PTA” value [2] was 30% and the “PTA in plasma after repeated oral administration” value [3] was “not detected”.
